These results are taken from ChEMBL document CHEMBL1121621, “Synthesis and antiarrhythmic activity of alpha, alpha-bis[(dialkylamino)alkyl]phenylacetamides” (J Med Chem, 1980).

Structures are written as SMILES. Some results are limits rather than exact numbers.

Data set [1] has as its system Canis familiaris. Briefly: Minimum effective dose evaluated in mixed-breed or Beagle dogs after intravenous administration. Format: functional. Conditions: Canis lupus familiaris, read-out: MED.
Data set [2] deals with Canis familiaris. The experiment in a line: Antiarrhythmic activity was evaluated in mixed-breed or Beagle dogs after intravenous administration. Format: functional, Canis lupus familiaris, Heart.
Data set [3] has as its system Canis familiaris. The experiment in a line: Activity duration index was evaluated in mixed-breed or Beagle dogs after intravenous administration. It is filed as functional, Canis lupus familiaris.
The nature of data set [4]: Therapeutic ratio in mixed-breed or Beagle dogs after intravenous administration of the compound. It is filed as ADME, Canis lupus familiaris. As to conditions: dog, in vivo, read-out: TR.

With `CC(C)N(CCC(CCN1CCCCC1)(C(N)=O)c1ccccc1Br)C(C)C` (stereo not drawn), the minimal effective dose in data set [1] is 1.5 mg/kg. In data set [2], this compound came in with an AR of 7.2. The same compound gave an ADI in data set [3] of 1.2. Moreover, the selectivity ratio in data set [4] came out at 13.
The matching figures for `CC(C)N(CCC(CCN1CCCCCC1)(C(N)=O)c1ccccc1)C(C)C` (stereo not drawn): 3 mg/kg, 6.8, 0.68 and 8.7.
The matching figures for `COc1ccc(C(CCN(C(C)C)C(C)C)(CCN(C(C)C)C(C)C)C(N)=O)cc1`: 4 mg/kg, 6.5, 1.33 and 3.1.
The matching figures for `CC(C)N(CCC(CCCN(C)C)(C(N)=O)c1ccccc1F)C(C)C` (stereo not drawn): 12.5 mg/kg, 1.8, 0.12 and above 4.
In the case of `CC(C)N(CCC(CCN(C(C)C)C(C)C)(C(N)=O)c1ccc(Cl)cc1Cl)C(C)C`, the minimal effective dose in data set [1] turned out to be 1.5 mg/kg. Also, in data set [2], the AR turned out to be 7.6. The ADI in data set [3] is given as 2.14. The selectivity ratio in data set [4] was determined as 4.
As for `CC(C)N(CCC(CCN(C(C)C)C(C)C)(C(N)=O)c1cccc(F)c1)C(C)C`, in data set [1], the minimal effective dose is 3 mg/kg. Moreover, the AR in data set [2] turned out to be 6. Moreover, the ADI in data set [3] is reported as 0.66. Further, in data set [4], the selectivity ratio came out at 2.4.
For `CCN(CC)CCC(CCN(C(C)C)C(C)C)(C(N)=O)c1ccccc1` (stereo not drawn) the same measures were 7.5 mg/kg, 4.6, 0.94 and 5.5.
For `CC(C)N(CCC(CCN1CCCCCC1)(C(N)=O)c1ccccc1F)C(C)C` (stereo not drawn) the same measures were 3 mg/kg, 6.9, 0.78 and 7.5.
The matching figures for `CC(C)N(CCC(CCN(C(C)C)C(C)C)(C(N)=O)c1ccccc1Cl)C(C)C`: 2.5 mg/kg, 6.5, 1.57 and 3.5.
In the case of `CC(C)N(CCC(CCCN1CCCCC1)(C(N)=O)c1ccccc1F)C(C)C` (stereo not drawn), in data set [1], the minimal effective dose was found to be 7.5 mg/kg. The same compound yielded an AR in data set [2] of 4.2. This compound returned an ADI in data set [3] of 0.36. Moreover, the selectivity ratio in data set [4] was above 6.
The matching figures for `CC(C)N(CCC(CCN(C(C)C)C(C)C)(C(N)=O)c1cccc(Cl)c1)C(C)C`: 1.5 mg/kg, 6.9, 1.42 and 6.7.
Take `CC(C)N(CCC(CCN1CCCCC1)(C(N)=O)c1ccc(C(C)(C)C)cc1)C(C)C` (stereo not drawn): the minimal effective dose in data set [1] came out at 2.5 mg/kg. In addition, in data set [2], the AR was 7.8. This compound also had an ADI in data set [3] of 0.82. For the same compound, in data set [4], the selectivity ratio amounted to 2.9.
For `CC(C)N(CCC(CCN1CCCCC1)(C(N)=O)c1ccc(F)cc1)C(C)C` (stereo not drawn), in data set [1], the minimal effective dose stood at 8.3 mg/kg. The compound further displayed an AR in data set [2] of 4.4. This compound also registered an ADI in data set [3] of 0.58. Also, the selectivity ratio in data set [4] turned out to be 1.
Consider `CC(C)N(CCC(CCn1cccc1)(C(N)=O)c1ccccc1)C(C)C` (stereo not drawn), for which the minimal effective dose in data set [1] amounted to 15 mg/kg. This compound also had an AR in data set [2] of 2.3. Besides, in data set [3], the ADI was 0.13. Besides, in data set [4], the selectivity ratio was above 3.3.
For `CC(C)N(CCC(CCN(C(C)C)C(C)C)(C(N)=O)c1ccccc1Br)C(C)C` the same measures were 1.5 mg/kg, 6.1, 2.16 and 8.
`CC(C)N(CCC(CCN(C(C)C)C(C)C)(C(N)=O)c1ccc(F)cc1F)C(C)C`: in data set [1], the minimal effective dose is 4.5 mg/kg. This compound also had an AR in data set [2] of 7.7. The ADI in data set [3] was 0.69. Besides, the selectivity ratio in data set [4] stood at 4.7.
`CC1CCCCN1CCC(CCN(C(C)C)C(C)C)(C(N)=O)c1ccccc1F` (stereo not drawn): in data set [1], the minimal effective dose worked out at 7.5 mg/kg. Also, in data set [2], the AR is listed as 4.6. Moreover, the ADI in data set [3] worked out at 0.6. For the same compound, the selectivity ratio in data set [4] was found to be 3.2.
